Earlier results on one compound are cited in patent publication US8119653B2, “Belactosin derivatives as therapeutic agents/biological probes and their synthesis” (The Texas A&M University System, priority 2006, dated 2012).

The conditions of data set [1]: in vivo.

For the compound `CCCCCCCCCCC[C@@H](C[C@@H]1OC(=O)[C@H]1CCCCCC)OC(=O)[C@H](CC(C)C)NC=O` [Orlistat], the solubility entry is on record as “poor”. Besides, the “effect on tumor cells in vitro” value with tumor cells was “cytotoxic and cytostatic”. For the same compound, the “tumor growth in vivo” value in the data set with tumor growth is “can inhibit tumor growth”. For the same compound, the bioavailability entry in data set [1] was “poor”.
